Assays:
[1] = xn = mol fraction of the nth substance listed; details: 101.3 kPa, Liquid, Vibrating tube method
[2] = excess molar enthalpy (molar enthalpy of mixing); xn = mol fraction of the nth substance listed; details: 303.15 K, 101.3 kPa, Liquid, Calvet calorimetry
[3] = molar heat capacity at constant pressure; xn = mol fraction of the nth substance listed; details: 101.3 kPa, Liquid, Small sample (50 mg) DSC

C[N+](=O)[O-] [nitromethane] + CCOS(=O)(=O)[O-].CCn1cc[n+](C)c1
Details | mass density, [1] [kg/m3] | molar heat capacity at constant pressure, [3] [J/K/mol]
293.15 K, x2 = 0.0513 | 1162.5 | 120.8
293.15 K, x2 = 0.0991 | 1176.4 | 134.3
293.15 K, x2 = 0.2013 | 1196.4 | 164
293.15 K, x2 = 0.3095 | 1209.6 | 195.4
293.15 K, x2 = 0.4073 | 1217.8 | 223.5
293.15 K, x2 = 0.5056 | 1223.9 | –
293.15 K, x2 = 0.5489 | 1226.3 | 264
293.15 K, x2 = 0.5944 | 1228.3 | –
293.15 K, x2 = 0.689 | 1232.1 | 304
293.15 K, x2 = 0.7805 | 1235.1 | 329.9
293.15 K, x2 = 0.8817 | 1237.9 | 358.6
293.15 K, x2 = 0.9398 | 1239.3 | –
293.15 K, x2 = 0.9522 | 1239.6 | –
298.15 K, x2 = 0.0513 | 1156.4 | 121.1
298.15 K, x2 = 0.0991 | 1170.9 | 134.7
298.15 K, x2 = 0.2013 | 1191.5 | 164.6
298.15 K, x2 = 0.3095 | 1205.1 | 196.1
298.15 K, x2 = 0.4073 | 1213.6 | 224.4
298.15 K, x2 = 0.5056 | 1220 | –
298.15 K, x2 = 0.5489 | 1222.4 | 265.2
298.15 K, x2 = 0.5944 | 1224.5 | –
298.15 K, x2 = 0.689 | 1228.4 | 305.5
298.15 K, x2 = 0.7805 | 1231.5 | 331.6
298.15 K, x2 = 0.8817 | 1234.4 | 360.5
298.15 K, x2 = 0.9398 | 1235.8 | –
298.15 K, x2 = 0.9522 | 1236.2 | –
303.15 K, x2 = 0.0513 | 1150.4 | 121.6
303.15 K, x2 = 0.0991 | 1165.3 | 135.3
303.15 K, x2 = 0.2013 | 1186.6 | 165.3
303.15 K, x2 = 0.3095 | 1200.7 | 196.9
303.15 K, x2 = 0.4073 | 1209.5 | 225.5
303.15 K, x2 = 0.5056 | 1216 | –
303.15 K, x2 = 0.5489 | 1218.5 | 266.6
303.15 K, x2 = 0.5944 | 1220.7 | –
303.15 K, x2 = 0.689 | 1224.7 | 307.2
303.15 K, x2 = 0.7805 | 1228 | 333.5
303.15 K, x2 = 0.8817 | 1230.9 | 362.6
303.15 K, x2 = 0.9398 | 1232.4 | –
303.15 K, x2 = 0.9522 | 1232.7 | –
308.15 K, x2 = 0.0513 | 1144.3 | 122.1
308.15 K, x2 = 0.0991 | 1159.7 | 135.9
308.15 K, x2 = 0.2013 | 1181.7 | 166
308.15 K, x2 = 0.3095 | 1196.2 | 197.8
308.15 K, x2 = 0.4073 | 1205.3 | 226.7
308.15 K, x2 = 0.5056 | 1212.1 | –
308.15 K, x2 = 0.5489 | 1214.6 | 268.1
308.15 K, x2 = 0.5944 | 1216.9 | –
308.15 K, x2 = 0.689 | 1221 | 308.9
308.15 K, x2 = 0.7805 | 1224.4 | 335.5
308.15 K, x2 = 0.8817 | 1227.5 | 364.8
308.15 K, x2 = 0.9398 | 1229 | –
308.15 K, x2 = 0.9522 | 1229.3 | –
313.15 K, x2 = 0.0513 | 1138.2 | 122.7
313.15 K, x2 = 0.0991 | 1154.2 | 136.6
313.15 K, x2 = 0.2013 | 1176.9 | 166.8
313.15 K, x2 = 0.3095 | 1191.8 | 198.7
313.15 K, x2 = 0.4073 | 1201.2 | 227.9
313.15 K, x2 = 0.5056 | 1208.2 | –
313.15 K, x2 = 0.5489 | 1210.8 | 269.7
313.15 K, x2 = 0.5944 | 1213.1 | –
313.15 K, x2 = 0.689 | 1217.4 | 310.9
313.15 K, x2 = 0.7805 | 1220.9 | 337.7
313.15 K, x2 = 0.8817 | 1224 | 367.1
313.15 K, x2 = 0.9398 | 1225.6 | –
313.15 K, x2 = 0.9522 | 1225.9 | –
318.15 K, x2 = 0.0513 | 1132.2 | 123.2
318.15 K, x2 = 0.0991 | 1148.6 | 137.2
318.15 K, x2 = 0.2013 | 1172 | 167.6
318.15 K, x2 = 0.3095 | 1187.4 | 199.7
318.15 K, x2 = 0.4073 | 1197.1 | 229.2
318.15 K, x2 = 0.5056 | 1204.2 | –
318.15 K, x2 = 0.5489 | 1207 | 271.4
318.15 K, x2 = 0.5944 | 1209.3 | –
318.15 K, x2 = 0.689 | 1213.8 | 312.9
318.15 K, x2 = 0.7805 | 1217.3 | 340
318.15 K, x2 = 0.8817 | 1220.6 | 369.6
318.15 K, x2 = 0.9398 | 1222.2 | –
318.15 K, x2 = 0.9522 | 1222.5 | –

[2]
Details | excess molar enthalpy [kcal/mol]
x2 = 0.1001 | -0.0688
x2 = 0.1977 | -0.116
x2 = 0.3075 | -0.142
x2 = 0.4001 | -0.154
x2 = 0.5071 | -0.148
x2 = 0.6026 | -0.131
x2 = 0.6953 | -0.108
x2 = 0.8026 | -0.0736
x2 = 0.8668 | -0.05

C[N+](=O)[O-] [nitromethane] + CCn1cc[n+](C)c1.O=S(=O)([O-])C(F)(F)F
Details | mass density, [1] [kg/m3] | molar heat capacity at constant pressure, [3] [J/K/mol]
293.15 K, x2 = 0.0525 | 1186.8 | 119.2
293.15 K, x2 = 0.0981 | 1217.2 | 130.6
293.15 K, x2 = 0.2013 | 1266.6 | 157
293.15 K, x2 = 0.3063 | 1300.5 | 183.7
293.15 K, x2 = 0.4027 | 1323.1 | 208.2
293.15 K, x2 = 0.4995 | 1340.5 | 233.2
293.15 K, x2 = 0.5934 | 1353.9 | 257.3
293.15 K, x2 = 0.6847 | 1364.4 | 280.5
293.15 K, x2 = 0.7698 | 1372.6 | 301.6
293.15 K, x2 = 0.8671 | 1380.5 | 326.9
298.15 K, x2 = 0.0525 | 1180.5 | 119.5
298.15 K, x2 = 0.0981 | 1211.2 | 130.9
298.15 K, x2 = 0.2013 | 1261.1 | 157.6
298.15 K, x2 = 0.3063 | 1295.4 | 184.4
298.15 K, x2 = 0.4027 | 1318.2 | 209.1
298.15 K, x2 = 0.4995 | 1335.7 | 234.3
298.15 K, x2 = 0.5934 | 1349.2 | 258.5
298.15 K, x2 = 0.6847 | 1359.9 | 281.9
298.15 K, x2 = 0.7698 | 1368.2 | 303.3
298.15 K, x2 = 0.8671 | 1376.2 | 328.8
303.15 K, x2 = 0.0525 | 1174.3 | 120
303.15 K, x2 = 0.0981 | 1205.3 | 131.4
303.15 K, x2 = 0.2013 | 1255.7 | 158.3
303.15 K, x2 = 0.3063 | 1290.3 | 185.2
303.15 K, x2 = 0.4027 | 1313.3 | 210.1
303.15 K, x2 = 0.4995 | 1331 | 235.5
303.15 K, x2 = 0.5934 | 1344.7 | 259.9
303.15 K, x2 = 0.6847 | 1355.4 | 283.3
303.15 K, x2 = 0.7698 | 1363.8 | 305
303.15 K, x2 = 0.8671 | 1371.9 | 330.7
308.15 K, x2 = 0.0525 | 1168 | 120.4
308.15 K, x2 = 0.0981 | 1199.3 | 131.8
308.15 K, x2 = 0.2013 | 1250.2 | 159.1
308.15 K, x2 = 0.3063 | 1285.2 | 186.1
308.15 K, x2 = 0.4027 | 1308.4 | 211.1
308.15 K, x2 = 0.4995 | 1326.3 | 236.7
308.15 K, x2 = 0.5934 | 1340.1 | 261.3
308.15 K, x2 = 0.6847 | 1351 | 284.8
308.15 K, x2 = 0.7698 | 1359.4 | 306.7
308.15 K, x2 = 0.8671 | 1367.6 | 332.7
313.15 K, x2 = 0.0525 | 1161.7 | 121
313.15 K, x2 = 0.0981 | 1193.4 | 132.4
313.15 K, x2 = 0.2013 | 1244.8 | 160
313.15 K, x2 = 0.3063 | 1280.1 | 187
313.15 K, x2 = 0.4027 | 1303.6 | 212.1
313.15 K, x2 = 0.4995 | 1321.6 | 238
313.15 K, x2 = 0.5934 | 1335.5 | 262.7
313.15 K, x2 = 0.6847 | 1346.5 | 286.3
313.15 K, x2 = 0.7698 | 1355.1 | 308.5
313.15 K, x2 = 0.8671 | 1363.4 | 334.7
318.15 K, x2 = 0.0525 | 1155.4 | 121.4
318.15 K, x2 = 0.0981 | 1187.4 | 132.8
318.15 K, x2 = 0.2013 | 1239.3 | 160.8
318.15 K, x2 = 0.3063 | 1275 | 188
318.15 K, x2 = 0.4027 | 1298.7 | 213
318.15 K, x2 = 0.4995 | 1316.9 | 239.2
318.15 K, x2 = 0.5934 | 1331 | 264.2
318.15 K, x2 = 0.6847 | 1342.1 | 287.8
318.15 K, x2 = 0.7698 | 1350.7 | 310.3
318.15 K, x2 = 0.8671 | 1359.1 | 336.7

[2]
Details | excess molar enthalpy [kcal/mol]
x2 = 0.1234 | -0.0301
x2 = 0.2533 | -0.0457
x2 = 0.3774 | -0.0468
x2 = 0.5026 | -0.048
x2 = 0.6253 | -0.0399
x2 = 0.7438 | -0.0299
x2 = 0.8668 | -0.0139

Reference: the NIST ThermoML archive (doi:10.1016/j.jct.2008.09.002)
